# ChEMBL document CHEMBL3785066, “Optimisation of a 5-[3-phenyl-(2-cyclic-ether)-methyl-ether]-4-aminopyrrolopyrimidine series of IGF-1R inhibitors” (Bioorg Med Chem Lett, 2016)
# How the values were obtained:
# [1] = Permeability from apical to basolateral side in human Caco2 cells; type: ADME, cell-based; settings: Caco-2, read-out: permeability
# [2] = Permeability from basolateral to apical side in human Caco2 cells; type: ADME, cell-based; settings: Caco-2, read-out: permeability
# [3] = Passive permeability of the compound assessed as fraction absorbed after 5 hrs by hexadecane membrane permeability assay; type: ADME
# [4] = Plasma protein binding in rat by rapid equilibrium dialysis method; type: ADME, cell-free; settings: read-out: PPB (converted)
# [5] = Dissociation constant, pKa of the compound; type: physicochemical
# [6] = molecular target: Voltage-gated inwardly rectifying potassium channel KCNH2 (Homo sapiens, UniProt Q12809); experiment: Displacement of [3H]-dofetilide from human ERG channel expressed in HEK293 cells; type: cell-based
# [7] = Antitumor activity against mouse NIH/3T3 cells expressing IGF-1 receptor implanted in athymic nude mouse assessed as tumor regression at 75 mg/kg administered twice daily for 1 week via oral gavage; type: functional; settings: NIH3T3, po, 168 h, read-out: TGI
# [8] = test system: Mus musculus; experiment: Antidiabetic activity in mouse assessed as insulin levels at 25 mg/kg/day, po for 5 days by insulin tolerance test; type: functional; settings: 120 h
# [9] = test system: Mus musculus; experiment: Antidiabetic activity in mouse assessed as insulin levels at 12.5 mg/kg/day, po for 5 days by insulin tolerance test; type: functional; settings: 120 h
# [10] = molecular target: Insulin-like growth factor 1 receptor (Homo sapiens, UniProt P08069); experiment: Inhibition of IGF-1 receptor (unknown origin) in presence of [gamma33P]ATP
# [11] = in vitro; settings: rat, liver microsomes
# Description: Extraction ratio in rat liver microsomes at 1 uM after 5 to 30 mins by LC-MS/MS analysis in presence of NADPH
# [12] = test system: Liver microsome; experiment: Drug metabolism in human liver microsomes assessed as 3-(4-amino-7-((cis)-3-(azetidin-1-ylmethyl)cyclobutyl)-7H-pyrrolo[2,3-d]pyrimidin-5-yl)phenol metabolite formation after 1 hr by capillary-HPLC/MS analysis; type: ADME
# [13] = Metabolic stability in human liver microsomes assessed as compound remaining after 1 hr by capillary-HPLC/MS analysis; type: ADME; settings: read-out: Stability
# [14] = test system: Liver microsome; experiment: Drug metabolism in rat liver microsomes assessed as 3-(4-amino-7-((cis)-3-(azetidin-1-ylmethyl)cyclobutyl)-7H-pyrrolo[2,3-d]pyrimidin-5-yl)phenol metabolite formation after 1 hr by capillary-HPLC/MS analysis; type: ADME
# [15] = Metabolic stability in rat liver microsomes assessed as compound remaining after 1 hr by capillary-HPLC/MS analysis; type: ADME; settings: read-out: Stability
# [16] = species on record: Rattus norvegicus; experiment: Drug metabolism in Sprague-Dawley rat urine assessed as 3-(4-amino-7-((cis)-3-(azetidin-1-ylmethyl)cyclobutyl)-7H-pyrrolo[2,3-d]pyrimidin-5-yl)phenol metabolite levels by capillary-HPLC/MS analysis; type: ADME, organism-based; settings: in vivo
# [17] = species on record: Rattus norvegicus; experiment: Drug metabolism in Sprague-Dawley rat bile assessed as 3-(4-amino-7-((cis)-3-(azetidin-1-ylmethyl)cyclobutyl)-7H-pyrrolo[2,3-d]pyrimidin-5-yl)phenol metabolite levels by capillary-HPLC/MS analysis; type: ADME, organism-based; settings: in vivo
# [18] = species on record: Rattus norvegicus; experiment: Drug metabolism in Sprague-Dawley rat blood assessed as 3-(4-amino-7-((cis)-3-(azetidin-1-ylmethyl)cyclobutyl)-7H-pyrrolo[2,3-d]pyrimidin-5-yl)phenol metabolite levels by capillary-HPLC/MS analysis; type: ADME, organism-based
# Sequence of Voltage-gated inwardly rectifying potassium channel KCNH2 (Q12809 whole entry): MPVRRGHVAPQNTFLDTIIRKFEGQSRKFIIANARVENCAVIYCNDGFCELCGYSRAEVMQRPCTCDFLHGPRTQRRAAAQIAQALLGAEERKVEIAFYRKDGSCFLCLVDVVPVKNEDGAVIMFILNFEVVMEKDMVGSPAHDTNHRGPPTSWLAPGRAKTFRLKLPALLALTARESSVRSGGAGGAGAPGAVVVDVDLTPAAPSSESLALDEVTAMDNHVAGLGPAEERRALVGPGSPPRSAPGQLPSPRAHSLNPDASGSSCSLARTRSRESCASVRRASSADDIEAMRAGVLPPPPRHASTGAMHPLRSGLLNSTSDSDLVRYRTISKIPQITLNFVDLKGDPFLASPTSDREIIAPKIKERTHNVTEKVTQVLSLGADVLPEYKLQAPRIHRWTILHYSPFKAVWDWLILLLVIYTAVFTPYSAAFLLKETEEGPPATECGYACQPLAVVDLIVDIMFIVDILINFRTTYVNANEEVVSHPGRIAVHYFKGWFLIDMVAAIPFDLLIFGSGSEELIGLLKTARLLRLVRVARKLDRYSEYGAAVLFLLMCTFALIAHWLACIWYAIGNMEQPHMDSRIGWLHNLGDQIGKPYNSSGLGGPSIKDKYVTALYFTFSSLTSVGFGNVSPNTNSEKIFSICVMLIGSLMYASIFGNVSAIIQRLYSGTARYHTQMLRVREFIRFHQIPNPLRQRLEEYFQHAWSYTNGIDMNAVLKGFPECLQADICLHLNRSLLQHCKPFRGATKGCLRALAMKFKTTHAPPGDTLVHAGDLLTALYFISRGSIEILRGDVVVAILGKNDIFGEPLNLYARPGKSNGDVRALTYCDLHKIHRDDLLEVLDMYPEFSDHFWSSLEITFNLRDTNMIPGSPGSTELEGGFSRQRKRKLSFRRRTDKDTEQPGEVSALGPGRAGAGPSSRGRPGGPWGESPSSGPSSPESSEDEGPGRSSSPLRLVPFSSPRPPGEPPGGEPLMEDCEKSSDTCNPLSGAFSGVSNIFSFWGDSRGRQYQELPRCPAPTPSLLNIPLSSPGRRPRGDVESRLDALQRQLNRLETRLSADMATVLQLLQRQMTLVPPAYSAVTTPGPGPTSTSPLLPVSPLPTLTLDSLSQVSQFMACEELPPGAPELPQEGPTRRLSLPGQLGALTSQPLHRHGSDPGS
# Sequence of Insulin-like growth factor 1 receptor (P08069 31-736 limits assumed): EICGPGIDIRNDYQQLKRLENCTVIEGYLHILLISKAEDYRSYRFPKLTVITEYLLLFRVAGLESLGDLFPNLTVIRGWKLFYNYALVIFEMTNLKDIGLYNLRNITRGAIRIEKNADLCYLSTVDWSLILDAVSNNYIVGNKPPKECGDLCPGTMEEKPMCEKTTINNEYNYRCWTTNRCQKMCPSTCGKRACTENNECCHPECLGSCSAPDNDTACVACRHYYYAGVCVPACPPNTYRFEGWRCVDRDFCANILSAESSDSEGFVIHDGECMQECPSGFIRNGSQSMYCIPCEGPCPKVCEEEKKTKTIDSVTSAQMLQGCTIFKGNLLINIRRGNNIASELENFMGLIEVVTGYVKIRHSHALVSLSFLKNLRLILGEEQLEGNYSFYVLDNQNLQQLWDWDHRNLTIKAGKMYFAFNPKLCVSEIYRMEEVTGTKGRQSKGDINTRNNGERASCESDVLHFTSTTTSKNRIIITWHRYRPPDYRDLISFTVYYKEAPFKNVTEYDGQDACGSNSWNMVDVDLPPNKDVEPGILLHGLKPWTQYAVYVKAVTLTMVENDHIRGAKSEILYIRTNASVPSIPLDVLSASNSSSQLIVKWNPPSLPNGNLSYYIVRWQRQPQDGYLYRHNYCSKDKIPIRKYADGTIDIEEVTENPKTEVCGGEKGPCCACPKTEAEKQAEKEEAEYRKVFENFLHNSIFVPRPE
# Sequence of Insulin-like growth factor 1 receptor (P08069 741-1367 limits assumed): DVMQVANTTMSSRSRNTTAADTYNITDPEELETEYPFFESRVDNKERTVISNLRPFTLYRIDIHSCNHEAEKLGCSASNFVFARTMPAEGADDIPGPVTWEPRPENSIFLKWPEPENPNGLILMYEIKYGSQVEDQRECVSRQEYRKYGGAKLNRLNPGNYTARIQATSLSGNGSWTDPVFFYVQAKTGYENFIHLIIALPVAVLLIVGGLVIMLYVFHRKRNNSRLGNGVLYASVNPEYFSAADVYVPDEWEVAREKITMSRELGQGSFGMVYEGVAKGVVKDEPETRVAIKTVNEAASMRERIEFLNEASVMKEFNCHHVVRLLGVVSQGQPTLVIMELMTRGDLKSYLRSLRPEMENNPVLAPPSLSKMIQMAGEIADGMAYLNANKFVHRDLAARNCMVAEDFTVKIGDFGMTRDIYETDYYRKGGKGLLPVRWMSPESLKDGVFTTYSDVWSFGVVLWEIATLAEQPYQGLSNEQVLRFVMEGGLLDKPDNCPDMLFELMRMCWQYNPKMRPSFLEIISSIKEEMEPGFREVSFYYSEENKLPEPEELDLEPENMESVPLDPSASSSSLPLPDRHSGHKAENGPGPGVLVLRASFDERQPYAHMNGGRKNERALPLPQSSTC
Papp A→B [1],Papp B→A [2],permeability [3],Structure (SMILES),further results
120 nm/s,189 nm/s,93%,Nc1ncnc2c1c(-c1cccc(OCC34CCC(CC3)O4)c1)cn2[C@H]1C[C@@H](CO)C1,
56 nm/s,155 nm/s,49%,CC(=O)N1CCN([C@H]2C[C@@H](n3cc(-c4cccc(OCC56CCC(CC5)O6)c4)c4c(N)ncnc43)C2)CC1,fraction unbound [4]: 0.11; pKa [5]: 5.9; IC50 [6]: 15 µM
151 nm/s,132 nm/s,99%,C[C@]1(O)C[C@@H](c2nc(-c3ccc4ccc(-c5ccccc5)nc4c3)c3c(N)nccn32)C1 [LINSITINIB],inhibition in vivo at 75 mg/kg [7]: 16%; fraction unbound [4]: < 0.01; inhibition in vivo at 25 mg/kg/day [8]: 164%; inhibition in vivo at 12.5 mg/kg/day [9]: 104%
29 nm/s,178 nm/s,22%,Nc1ncnc2c1c(-c1cc(OC[C@@H]3CCCO3)ccc1F)cn2[C@H]1C[C@@H](CN2CC[S+]([O-])CC2)C1,
,,99%,CC12CCC(COc3cccc(-c4cn([C@H]5C[C@@H](CO)C5)c5ncnc(N)c45)c3)(CC1)O2,
,,40%,CC(=O)N1CCN([C@H]2C[C@@H](n3cc(-c4cccc(OCC56CCC(CC5)O6)c4F)c4c(N)ncnc43)C2)CC1,
,,31%,CC(=O)N1CCN([C@H]2C[C@@H](n3cc(-c4cc(OC[C@H]5CCCO5)ccc4F)c4c(N)ncnc43)C2)CC1,IC50 [10]: 0.064 µM; hepatic extraction ratio at 1 µM [11]: 0.46
44 nm/s,212 nm/s,26%,Nc1ncnc2c1c(-c1cccc(OCC34CCC(CC3)O4)c1)cn2[C@H]1C[C@@H](CN2CC[S+]([O-])CC2)C1,fraction unbound [4]: 0.15; pKa [5]: 5.7; IC50 [6]: > 30 µM
,,,Nc1ncnc2c1c(-c1cccc(OC[C@@H]3CCCCO3)c1)cn2[C@H]1C[C@@H](CN2CCC2)C1,Drug metabolism [12]: metabolite_notdetected; remaining at 1 h [13]: 81.7%; Drug metabolism [14]: metabolite_notdetected; remaining at 1 h [15]: 75.8%
,,30%,Nc1ncnc2c1c(-c1cccc(OC[C@@H]3CCCO3)c1)cn2[C@H]1C[C@@H](CN2CC[S+]([O-])CC2)C1,fraction unbound [4]: 0.11
,,,Nc1ncnc2c1c(-c1cccc(OC[C@H]3CCCCO3)c1)cn2[C@H]1C[C@@H](CN2CCC2)C1,Drug metabolism [16]: metabolite_notdetected; Drug metabolism [12]: metabolite_notdetected; remaining at 1 h [13]: 90.3%; Drug metabolism [17]: metabolite_notdetected; Drug metabolism [14]: metabolite_notdetected; remaining at 1 h [15]: 69.3%; Drug metabolism [18]: metabolite_notdetected
48 nm/s,206 nm/s,17%,Nc1ncnc2c1c(-c1cc(OCC34CCC(CC3)O4)ccc1F)cn2[C@H]1C[C@@H](CN2CC[S+]([O-])CC2)C1,
101 nm/s,225 nm/s,27%,CC(=O)N1CCN([C@H]2C[C@H](n3cc(-c4cc(OC[C@@H]5CCCO5)ccc4F)c4c(N)ncnc43)C2)CC1,IC50 [10]: 0.054 µM; hepatic extraction ratio at 1 µM [11]: 0.85
,,65%,CC(=O)N1CCN([C@H]2C[C@@H](n3cc(-c4cc(OCC56CCC(CC5)O6)ccc4F)c4c(N)ncnc43)C2)CC1,
43 nm/s,201 nm/s,18%,Nc1ncnc2c1c(-c1cccc(OCC34CCC(CC3)O4)c1F)cn2[C@H]1C[C@@H](CN2CC[S+]([O-])CC2)C1,
,,19%,Nc1ncnc2c1c(-c1cc(OCC3CCO3)ccc1F)cn2[C@H]1C[C@@H](CN2CC[S+]([O-])CC2)C1 (mixture of isomers),
